{"source": "patent US20140056935A1", "about": "“PEPTIDE WHICH CAN INDUCE ANTIBODY CAPABLE OF RECOGNIZING STEREOSTRUCTURE OF HIV” (priority 2011, published 2014)", "origin": "cited, not measured here", "system": "HIV", "settings": "MAGI assay, Non-Patent Document 17"}
{"substance": "enfuvirtide", "values": [{"measurement": "activity relative to C34 native peptide monomer in terms of EC50 values", "result": "about 10 times"}]}
